# Test results reported in EP0943339A2, “Method of preventing allograft rejection” (priority 1998, dated 1999).
# System: acute allograft rejection
# Test: murine cardiac ear pinna model of acute allograft rejection (non-vascularized cardiac tissue transplantation)
# Format: in vivo
# Details: for Graft Survival Mean ± Std Dev: monotherapy, day 0 to 17
# Description: In Vivo Murine Cardiac Ear Pinnae Model of Transplatation
# • Methods: A rapid, facile 2-week murine bioassay of non-vascularized cardiac tissue transplantation,t he murine cardiac ear pinna model of acute allograft rejection, was used to evaluate the dose-response relationship of immunosuppressive drugs on allograft rejection. In this model, donor BALB/C (N2^d) neonatal hearts are transplanted into recipient C3H/HeN (H2^k) ear pinna pouches without vacular anastomoses. […] All compounds are given on day 0 to 17 COMPOUND P [(+)-2-[3,4-dihydro(3S,4R)-4-hydroxy-3-(4-phenyl-phenylmethyl)-7-(2H, 1-benzopyran)]cyclopentane carboxylic acid] was given orally in 0.5% Methylcellulose. […] Grafts were assessed by visual examination for contraction on alternate days (from 6 to 18) and graft survival was defined as the post-transplant day on which contractions cease. Efficacy data from day 6 to 18 is presented as mean survival days (±SD) and was analyzed by Log Rank Analysis. Graft survival values were deterined at day 18. […] The studies were performed at Stanford Medical Ceter in a collaborative grant with Randall Morris, MD. […]
compound,measurement,setting,value
"C=CC[C@@H]1/C=C(\C)C[C@H](C)C[C@H](OC)[C@H]2O[C@@](O)(C(=O)C(=O)N3CCCC[C@H]3C(=O)O[C@H](/C(C)=C/[C@@H]3CC[C@@H](O)[C@H](OC)C3)[C@H](C)[C@@H](O)CC1=O)[C@H](C)C[C@@H]2OC (relative stereo) [FK506, [3S-[3R*[E(1S*,3S*,4S*)], 4S*, 5R*, 8S*, 9E, 12R*, 14R*, 15S*, 16R*, 18S*, 19S*, 26aR*]]-5,6,8,11,12,13,14,15,16,17,18,19,24,25,26,26a-Hexadeachydro-5,19-dihydroxy-3-[2-(4-hydroxy-3-[2-(4-hydroxy-3-methoxycyclohexyl)-1-methyl-ethenyl]-14,16-dimethoxy-4,10,12,18-tetramethyl-8-(2-propenyl)-15,19-epoxy-3H-pyrido[2,1-c][1,4]oxaazacyclotricosine-1,7,20,21(4H,23H)-tetrone]",Graft Survival Mean ± Std Dev,"FK506 0.2 mg/kg/d intraperitoneal, survival assessed to day 18",11.6 ± 1.3 days
same,Graft Survival Mean ± Std Dev,"FK506 0.4 mg/kg/d intraperitoneal, survival assessed to day 18",12.4 ± 0.9 days
same,Graft Survival Mean ± Std Dev,"FK506 0.6 mg/kg/d intraperitoneal, grafts surviving at day 18 censored",>16.9 ± 1.8 days
same,Graft Survival Mean ± Std Dev,"FK506 0.8 mg/kg/d intraperitoneal, grafts surviving at day 18 censored",>17.8 ± 0.6 days
"O=C(O)C1CCCC1c1ccc2c(c1)OC[C@H](Cc1ccc(-c3ccccc3)cc1)[C@H]2O (single isomer, unassigned; (+)) [COMPOUND P]",efficacy as a single agent in acute rejection,"highest dose, 300 mg/kg/d",significant (p<0.01)
same,Graft Survival Mean ± Std Dev,"COMPOUND P 30 mg/kg/d orally, survival assessed to day 18",11.0 ± 1.1 days
same,Graft Survival Mean ± Std Dev,"COMPOUND P 100 mg/kg/d orally, survival assessed to day 18",10.3 ± 0.7 days
same,Graft Survival Mean ± Std Dev,"COMPOUND P 200 mg/kg/d orally, survival assessed to day 18",10.3 ± 0.7 days
same,Graft Survival Mean ± Std Dev,"COMPOUND P 300 mg/kg/d orally, survival assessed to day 18",11.8 ± 1.1 days
COc1c(C)c2c(c(O)c1C/C=C(\C)CCC(=O)O)C(=O)OC2 [MPA],Graft Survival Mean ± Std Dev,"MPA 100 mg/kg/d, survival assessed to day 18",13.6 ± 1.9 days
same,Graft Survival Mean ± Std Dev,"MPA 150 mg/kg/d, survival assessed to day 18",16.6 ± 1.9 days
